According to patent US6362207B1, “Methods of treating viral infections with benzimidazoles” (priority 1995, dated 2002):
Where two headings read alike, the source gives them in different places.

Key:
MX1 breast cells = assay: MTT cell viability test, breast tumor cells; assay type: cell-based, human; settings: 5 day incubation
[1] = system: B16 murine melanoma cell line; assay: Apoptosis study (TdT assay) and cell growth; assay type: cell-based
Procedure: (§1) Summary of test results: The extent of apoptosis is measured in human tumor cell lines after treatment for 1, 2, 3 and 4 days with carbendazim. At each of these time points, the cells are harvested and assayed using the terminal deoxynucleotidyl transferase (TdT) assays. Both microscopy and flow cytometry were used for the TdT assay.
(§2) In MCF7, HT29, B16 and SK-MES cell lines, there was a concentration dependent effect on cell growth. […] After completion of the studies on the MCF7 and HT29 cell lines, it was evident that the 0.1 μg/ml concentration had little effect on either apoptosis or cell growth. Therefore subsequent assays were with 5 μg/ml instead of 0.1 μg/ml.
The concentration effects at days 1-4 were much more evident after normalization of the apoptosis for the growth rates.

SK-MES cells (lung) = assay: Apoptosis study (TdT assay) and cell growth; assay type: cell-based, human
Procedure: as §1, §2
The growth of SK-MES cells was slowed done by all concentrations of carbendazim past day 1.

Rhabdomysarcoma = Rhabdomysarcoma model, tumor weight; assay type: in vivo; settings: 3000 (mg/kg) group, once weekly p.o.
Text: The dose response effect of carbendazim in mice infected with various cancer types was studied in standard screening tests.
The results of these studies conducted to study the dosage response of carbendazim on various cancer types are summarized below. […] Efficacy of carbendazim has been shown in the following cancers:
In the Rhabdomysarcoma model, a childhood cancer, at day 29 carbendazim at doses of 3000, 4000 and 5000 (mg/kg given once weekly, p.o.) is quite effective against this tumor with no toxicity in the 3000 (mg/kg) group. Topotecan (i.p., qd×5) is quite active against this model.

B-16 mouse melanoma = settings: for Increased Life Span: B16 melanoma
Procedure: The data in Tables 1, 2 and 3 are reported in T/C which is interpreted using the following scale:
long term survivors for P388 is >30 days, for B16 it is >60 days. The NCI Measure of Success is T/C=125.
This study was performed in black mice injected i.p. with B-16 mouse melanoma which many researchers believe is the most predictive model for efficacy in humans. […] Death is the end point in this model.

P388 = assay: P-388 model for leukemia, T/C; assay type: in vivo, mice
Text: In the P-388 model for leukemia there was a dose responsive effect and the results were good.
The NCI Measure of Success is T/C=125.

[2] = assay type: in vivo
Text: Additional in vivo cancer studies are presented in a tabular form below. The data is presented in the following format—dose regimen in parenthesis, dosage in mg/kg: tumor growth suppression (tg supp.), toxic deaths/number of test subjects (deaths), % weight change (wt).

lung = assay type: in vivo; settings: A549-lung, 500 mg/kg
Oral LD50 = settings: mouse, in vivo, mice
HIV = assay: microbe, parasite or virus in culture; assay type: cell-based
influenza = assay: In vivo model for influenza; parameters: species or system mice; settings: mouse, in vivo
Procedure: The positive control was amantadine (75 mg/kg) with 100% of the mice surviving for 21 days. 2-(Methoxycarbonylamino)benzimidazole was not active in the same test.

herpes = assay: In vitro herpes model; assay type: cell-based
rhinovirus = assay: In vitro rhinovirus model; assay type: cell-based
[3] = DU-145, 4000 mg/kg twice weekly
[4] = DU-145, 5000 mg/kg twice weekly
[5] = DU-145, 6000 mg/kg twice weekly
[6] = HT29 (colon), 2000 mg/kg twice weekly
[7] = HT29 (colon), 3000 mg/kg twice weekly
[8] = HT29 (colon), 4000 mg/kg twice weekly
[9] = HT29 (colon), 5000 mg/kg twice weekly
[10] = HT29 (colon), 6000 mg/kg twice weekly
[11] = MCF-7L (breast), 4000 mg/kg twice weekly
[12] = MCF-7L (breast), 5000 mg/kg twice weekly
[13] = MX1 xenograft, 4000 mg/kg twice weekly
[14] = MX1 xenograft, 5000 mg/kg twice weekly
[15] = MX1 xenograft, 6000 mg/kg twice weekly
[16] = SK-MES, 4000 mg/kg twice weekly
[17] = SK-MES, 5000 mg/kg twice weekly
[18] = SK-MES, 6000 mg/kg twice weekly

SMILES: COC(=O)Nc1nc2ccccc2[nH]1 [carbendazim, 2-methoxycarbonylamino-benzimidazole]
- EC-50 Result (MX1 breast cells; MX1, first column): 0.829 ppm
- EC-50 Result (MX1 breast cells; MX1, second column): 0.856 ppm
- growth rates ([1]; all concentrations): affected the growth rates
- apoptosis ([1]; days 14 by TdT microscopy and days 2-4 by flow cytometry): Some concentration dependent effects
- cell growth (SK-MES cells (lung); all concentrations, past day 1): slowed done
- percent of apoptosis (SK-MES cells (lung); days 1-4 microscopic TdT assay, days 3 and 4 flow cytometry): concentration-response effect
- toxicity (Rhabdomysarcoma): no toxicity
- T/C (B-16 mouse melanoma; 500 mg/kg twice weekly): 141
- weight change (%) (B-16 mouse melanoma; 500 mg/kg twice weekly): −0.64%
- T/C (B-16 mouse melanoma; 1000 mg/kg twice weekly): 176
- weight change (%) (B-16 mouse melanoma; 1000 mg/kg twice weekly): −4.75%
- T/C (B-16 mouse melanoma; 1250 mg/kg twice weekly): 124
- weight change (%) (B-16 mouse melanoma; 1250 mg/kg twice weekly): +1.99%
- T/C (B-16 mouse melanoma; 2000 mg/kg twice weekly): 169
- weight change (%) (B-16 mouse melanoma; 2000 mg/kg twice weekly): −11.63%
- T/C (B-16 mouse melanoma; 2500 mg/kg twice weekly): 169
- weight change (%) (B-16 mouse melanoma; 2500 mg/kg twice weekly): +3.16%
- T/C (B-16 mouse melanoma; 5000 mg/kg twice weekly): 198
- weight change (%) (B-16 mouse melanoma; 5000 mg/kg twice weekly): −0.64%
- Increased Life Span (B-16 mouse melanoma; 1000 mg/kg): 131%
- Increased Life Span (B-16 mouse melanoma; 2000 mg/kg): 163%
- Increased Life Span (B-16 mouse melanoma; 4000 mg/kg): 187%
- T/C (P388; 500 mg/kg twice weekly): 141
- weight change (%) (P388; 500 mg/kg twice weekly): −0.64%
- T/C (P388; 1000 mg/kg twice weekly): 176
- weight change (%) (P388; 1000 mg/kg twice weekly): −4.75%
- T/C (P388; 1250 mg/kg twice weekly): 124
- weight change (%) (P388; 1250 mg/kg twice weekly): +1.99%
- T/C (P388; 2000 mg/kg twice weekly): 169
- weight change (%) (P388; 2000 mg/kg twice weekly): −11.63%
- T/C (P388; 2500 mg/kg twice weekly): 169
- weight change (%) (P388; 2500 mg/kg twice weekly): +3.16%
- T/C (P388; 5000 mg/kg twice weekly): 198
- weight change (%) (P388; 5000 mg/kg twice weekly): −0.64%
- Increased Life Span (P388; P388-luekemia, 1000 mg/kg): 129%
- Increased Life Span (P388; P388-luekemia, 2000 mg/kg): 148%
- decreased life span (P388; P388-luekemia, 4000 mg/kg, printed in column Increased Life Span): 9%
- % weight change (wt) ([2]; A549 (lung), 500 mg/kg): +10%
- toxic deaths/number of test subjects (deaths) ([2]; A549 (lung), 500 mg/kg): 0/10
- tumor growth suppression (tg supp.) ([2]; A549 (lung), 500 mg/kg): 57%
- toxic deaths/number of test subjects (deaths) ([2]; A549 (lung), 2500 mg/kg): 10/10
- % weight change (wt) [2, 3]: −5%
- toxic deaths/number of test subjects (deaths) [2, 3]: 0/10
- tumor growth suppression (tg supp.) [2, 3]: 52%
- % weight change (wt) [2, 4]: −8%
- toxic deaths/number of test subjects (deaths) [2, 4]: 1/10
- tumor growth suppression (tg supp.) [2, 4]: 48%
- % weight change (wt) [2, 5]: −6%
- toxic deaths/number of test subjects (deaths) [2, 5]: 1/10
- tumor growth suppression (tg supp.) [2, 5]: 33%
- % weight change (wt) [2, 6]: +3%
- toxic deaths/number of test subjects (deaths) [2, 6]: 0/10
- tumor growth suppression (tg supp.) [2, 6]: 36%
- % weight change (wt) [2, 7]: −6%
- toxic deaths/number of test subjects (deaths) [2, 7]: 2/10
- tumor growth suppression (tg supp.) [2, 7]: 65%
- % weight change (wt) [2, 8]: −12%
- toxic deaths/number of test subjects (deaths) [2, 8]: 3/10
- tumor growth suppression (tg supp.) [2, 8]: 78%
- % weight change (wt) [2, 9]: −8%
- toxic deaths/number of test subjects (deaths) [2, 9]: 2/10
- tumor growth suppression (tg supp.) [2, 9]: 79%
- % weight change (wt) [2, 10]: −25%
- toxic deaths/number of test subjects (deaths) [2, 10]: 9/10
- tumor growth suppression (tg supp.) [2, 10]: 97%
- % weight change (wt) [2, 11]: −7%
- toxic deaths/number of test subjects (deaths) [2, 11]: 5/10
- tumor growth suppression (tg supp.) [2, 11]: 94%
- % weight change (wt) [2, 12]: −8%
- toxic deaths/number of test subjects (deaths) [2, 12]: 7/10
- tumor growth suppression (tg supp.) [2, 12]: 100%
- toxic deaths/number of test subjects (deaths) ([2]; MCF-7L (breast), 6000 mg/kg twice weekly): 10/10
- % weight change (wt) [2, 13]: −1%
- toxic deaths/number of test subjects (deaths) [2, 13]: 0/10
- tumor growth suppression (tg supp.) [2, 13]: 48%
- % weight change (wt) [2, 14]: −4%
- toxic deaths/number of test subjects (deaths) [2, 14]: 1/10
- tumor growth suppression (tg supp.) [2, 14]: 63%
- % weight change (wt) [2, 15]: −4%
- toxic deaths/number of test subjects (deaths) [2, 15]: 1/9
- tumor growth suppression (tg supp.) [2, 15]: 70%
- % weight change (wt) [2, 16]: +3%
- toxic deaths/number of test subjects (deaths) [2, 16]: 2/10
- tumor growth suppression (tg supp.) [2, 16]: 45%
- % weight change (wt) [2, 17]: +2%
- toxic deaths/number of test subjects (deaths) [2, 17]: 1/10
- tumor growth suppression (tg supp.) [2, 17]: 44%
- % weight change (wt) [2, 18]: −2%
- toxic deaths/number of test subjects (deaths) [2, 18]: 3/10
- tumor growth suppression (tg supp.) [2, 18]: 69%
- Tumor Growth Decrease (%) (lung): 57%
- LD50 (Oral LD50): 11000 mg/kg
- therapeutic index (TI), ratio of toxic dose to efficacious dose (HIV): 1.8
- inhibition at 4 µg/mL (HIV; Human immunodeficiency virus 1, read-out: inhibition of viral replication): 100%
- activity (influenza): not active
- activity (herpes): no activity
- therapeutic index (TI), ratio of toxic dose to efficacious dose (rhinovirus): 1-3
